Patent US20250268876A1, “TREATMENT OF HIDRADENITIS SUPPURATIVA WITH ORISMILAST” (UNION THERAPEUTICS A/S, priority 2021, published 2025)
pEC50, pIC50: −log10 of the molar value.

Experiments:
[1] = biological target: T1, PDE4D3 (Homo sapiens, UniProt Q08499); test: IMAP fluorescence polarisation PDE4 subtype assay; type: biochemical; conditions: compound 10^−7 M
[2] = biological target: PDE4C2 (Homo sapiens, UniProt Q08493); test: IMAP fluorescence polarisation PDE4 subtype assay; type: biochemical
Chain of PDE4C2 (Q08493 107-712): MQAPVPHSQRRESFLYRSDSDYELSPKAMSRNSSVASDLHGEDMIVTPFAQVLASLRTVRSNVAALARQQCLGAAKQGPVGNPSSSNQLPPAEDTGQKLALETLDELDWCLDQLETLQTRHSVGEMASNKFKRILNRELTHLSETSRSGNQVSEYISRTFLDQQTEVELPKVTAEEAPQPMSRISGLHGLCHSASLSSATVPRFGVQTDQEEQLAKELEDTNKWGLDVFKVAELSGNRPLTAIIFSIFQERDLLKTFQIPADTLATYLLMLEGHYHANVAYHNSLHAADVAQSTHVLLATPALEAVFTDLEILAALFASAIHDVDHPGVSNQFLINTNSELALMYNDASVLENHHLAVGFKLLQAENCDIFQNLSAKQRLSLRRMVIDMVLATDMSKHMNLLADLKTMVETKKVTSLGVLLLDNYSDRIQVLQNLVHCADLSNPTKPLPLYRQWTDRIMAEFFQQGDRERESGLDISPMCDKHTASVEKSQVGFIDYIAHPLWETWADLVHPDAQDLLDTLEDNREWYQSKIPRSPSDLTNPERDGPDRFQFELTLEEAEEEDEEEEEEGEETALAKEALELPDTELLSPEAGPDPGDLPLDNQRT

[3] = system: TNF-α; test: LPS-induced TNF-α in ferrets after single oral administration; conditions: oral 1, 3 and 10 mg/kg; 1 hour after LPS (3 mg/kg ip)
[4] = system: human PBMC; test: Viability, serum-free, hPBMC, LPS (ATP); type: cell-based
Experimental: Viability, Serum-Free, hPBMC, LPS
The viability of the cells from the TNF-α assay is measured in the wells using the ATP vialight kit (Perkin Elmer, ATP-lite M, cat. no 6016949). The assay detects the amount of ATP using a bioluminescent method that utilizes an enzyme, luciferase, which catalyses the formation of light from ATP and luciferin according to the following reaction:
The emitted light intensity is linearly related to the ATP concentration and is measured using a luminometer. The effect (inhibition of viability) of a test compound was calculated using equation 1:
[formula] • where • So=Emitted light intensity reflecting the ATP concentration in the presence of 0.1% DMSO, • Sc=Emitted light intensity reflecting the ATP concentration in the presence of 10 μM Actinomycin in 0.1% DMSO and • Sx=Emitted light intensity reflecting the ATP concentration in the presence of test compound in 0.1% DMSO.
This model describes a sigmoidal curve with an adjustable baseline, a. […]
[formula] • where • C=concentration of test compound • % Effect=normalized response calculated as described in Equation 1 • Emin=min response as compound concentration approaches 0 • Emax=max response as concentration of tested compound is increasing • EC50=Concentration of tested compound giving a response in the middle of Emin and Emax • nH=Hill coefficient or curve slope.

[5] = biological target: PDE4A1 (Homo sapiens, UniProt P27815); test: biochemical
[6] = system: IL-1; test: Human whole blood cytokine secretion assay (TruCulture); type: cell-based; conditions: read-out: % inhibition at 20 nM, IL-1, mean of 3 experiments
Experimental: (§1) TruCulture blood collection and incubation tubes were tested with fresh human whole blood with or without addition of 20 nM of the compound of formula (I). The best results were obtained using heparin-stabilised blood and anti-CD3/CD28 test tubes.

[7] = system: IFN-γ; test: as above; type: cell-based; conditions: read-out: % inhibition at 20 nM, IFN-γ, mean of 3 experiments
Experimental: as §1

[8] = system: IL-2; test: as above; type: cell-based; conditions: read-out: % inhibition at 20 nM, IL-2, mean of 3 experiments
Experimental: as §1

[9] = system: IL-13; test: as above; type: cell-based; conditions: 20 nM
Experimental: as §1

[10] = system: IL-4; test: as above; type: cell-based; conditions: read-out: % inhibition at 20 nM, IL-4, mean of 3 experiments
Experimental: as §1

[11] = system: IL-8; test: as above; type: cell-based; conditions: 20 nM
Experimental: as §1

[12] = system: TNF-α; test: as above; type: cell-based; conditions: read-out: % inhibition at 20 nM, TNF-α, mean of 3 experiments
Experimental: as §1

[13] = biological target: human recombinant PDE4D protein (Homo sapiens, UniProt Q08499); test: PDE4D scintillation proximity assay (SPA); type: biochemical; conditions: purified human recombinant PDE4D
Chain of human recombinant PDE4D protein (Q08499 whole entry): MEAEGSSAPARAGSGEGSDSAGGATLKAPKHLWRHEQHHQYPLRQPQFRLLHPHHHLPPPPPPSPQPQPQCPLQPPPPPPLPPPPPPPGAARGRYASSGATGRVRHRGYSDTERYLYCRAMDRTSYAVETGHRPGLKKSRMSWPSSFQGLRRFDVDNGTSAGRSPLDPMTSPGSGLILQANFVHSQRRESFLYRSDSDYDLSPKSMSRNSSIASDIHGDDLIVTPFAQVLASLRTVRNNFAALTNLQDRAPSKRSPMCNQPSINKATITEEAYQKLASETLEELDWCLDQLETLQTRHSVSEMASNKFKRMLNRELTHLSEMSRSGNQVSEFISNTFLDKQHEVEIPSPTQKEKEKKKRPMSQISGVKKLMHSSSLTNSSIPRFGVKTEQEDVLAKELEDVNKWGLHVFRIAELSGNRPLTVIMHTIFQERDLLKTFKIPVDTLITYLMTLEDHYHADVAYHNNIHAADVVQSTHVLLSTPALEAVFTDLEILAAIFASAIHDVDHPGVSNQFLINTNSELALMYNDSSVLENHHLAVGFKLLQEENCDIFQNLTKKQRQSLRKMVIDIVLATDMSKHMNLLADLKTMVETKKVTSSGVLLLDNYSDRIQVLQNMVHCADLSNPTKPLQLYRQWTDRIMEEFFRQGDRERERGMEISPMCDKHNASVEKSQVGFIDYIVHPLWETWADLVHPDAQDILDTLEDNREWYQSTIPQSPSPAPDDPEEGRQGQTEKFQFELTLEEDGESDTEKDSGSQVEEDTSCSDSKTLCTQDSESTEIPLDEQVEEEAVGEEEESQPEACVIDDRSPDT
Experimental: PDE4 enzymatic activity was measured in a scintillation proximity assay using purified human recombinant PDE4D protein.

[14] = biological target: PDE4A4 (Homo sapiens, UniProt P27815); test: biochemical
Chain of PDE4A4 (P27815 whole entry): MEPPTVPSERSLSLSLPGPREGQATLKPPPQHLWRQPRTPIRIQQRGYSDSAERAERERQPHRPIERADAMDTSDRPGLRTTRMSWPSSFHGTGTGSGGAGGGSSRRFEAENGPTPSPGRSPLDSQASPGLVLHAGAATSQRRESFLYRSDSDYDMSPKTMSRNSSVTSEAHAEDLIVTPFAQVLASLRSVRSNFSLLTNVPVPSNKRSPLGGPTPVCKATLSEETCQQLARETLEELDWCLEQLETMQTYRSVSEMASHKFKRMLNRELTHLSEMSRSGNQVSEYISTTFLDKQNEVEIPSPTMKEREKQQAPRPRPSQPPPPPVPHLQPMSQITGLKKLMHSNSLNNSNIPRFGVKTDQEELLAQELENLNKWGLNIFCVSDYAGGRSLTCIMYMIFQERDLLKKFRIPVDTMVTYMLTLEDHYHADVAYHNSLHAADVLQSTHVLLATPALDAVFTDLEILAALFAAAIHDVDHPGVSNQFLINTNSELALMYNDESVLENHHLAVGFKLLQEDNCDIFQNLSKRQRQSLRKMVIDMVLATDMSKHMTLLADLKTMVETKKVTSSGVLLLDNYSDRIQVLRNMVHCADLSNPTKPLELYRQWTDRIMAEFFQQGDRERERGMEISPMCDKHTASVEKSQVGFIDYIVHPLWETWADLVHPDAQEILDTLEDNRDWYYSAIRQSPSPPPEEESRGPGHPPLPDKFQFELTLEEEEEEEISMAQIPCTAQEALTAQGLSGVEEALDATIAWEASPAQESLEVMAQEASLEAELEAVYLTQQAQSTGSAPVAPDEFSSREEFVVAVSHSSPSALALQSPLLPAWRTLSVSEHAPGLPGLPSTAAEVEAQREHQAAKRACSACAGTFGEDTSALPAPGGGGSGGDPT

[15] = biological target: PDE4D7 (Homo sapiens, UniProt Q08499); type: biochemical
Chain of PDE4D7 (Q08499 1-748 isoform Q08499-11): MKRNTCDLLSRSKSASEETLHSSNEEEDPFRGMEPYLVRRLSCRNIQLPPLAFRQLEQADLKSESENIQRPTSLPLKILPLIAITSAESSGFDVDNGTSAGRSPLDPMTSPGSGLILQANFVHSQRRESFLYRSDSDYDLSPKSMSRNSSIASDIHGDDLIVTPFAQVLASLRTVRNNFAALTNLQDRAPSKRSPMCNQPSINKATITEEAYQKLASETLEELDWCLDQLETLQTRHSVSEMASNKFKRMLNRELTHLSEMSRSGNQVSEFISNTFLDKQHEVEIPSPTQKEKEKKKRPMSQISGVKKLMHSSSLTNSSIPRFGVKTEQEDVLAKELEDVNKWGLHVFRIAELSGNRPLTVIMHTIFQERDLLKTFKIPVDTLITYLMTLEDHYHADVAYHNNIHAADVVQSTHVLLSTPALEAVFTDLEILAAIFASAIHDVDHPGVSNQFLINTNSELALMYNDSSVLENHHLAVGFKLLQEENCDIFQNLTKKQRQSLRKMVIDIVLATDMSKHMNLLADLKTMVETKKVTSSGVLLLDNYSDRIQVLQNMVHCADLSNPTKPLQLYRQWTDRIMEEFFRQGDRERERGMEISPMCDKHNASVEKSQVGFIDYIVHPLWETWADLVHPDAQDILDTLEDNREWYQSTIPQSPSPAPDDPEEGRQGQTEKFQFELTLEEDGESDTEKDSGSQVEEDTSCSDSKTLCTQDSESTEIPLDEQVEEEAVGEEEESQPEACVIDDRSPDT
Experimental: (§2) Enzyme Preparations: Partially purified human recombinant phosphodiesterases (PDEs) were obtained by cloning cDNA and expressing in S. frugiperda insect cells using a baculovirus expression system. Cells are harvested from culture by centrifuging at 400×g for 5 minutes. Cell pellet is resuspended in 20 ml of RIPA Buffer (150 mM NaCl, 10 mM Tris, 0.1% NP-40, pH8.3), 4 ml/200 ml of culture, plus protease inhibitors (100 μl/10 ml) and incubated on ice for 10-20 minutes then spun at 3500×g for 10 minutes at 4° C. Supernatant is kept and the pellet thrown away.
(§3) Tritium-labelled cyclic AMP is hydrolysed to 5′-AMP o by PDE. The 5′-AMP is then further hydrolysed to adenosine by nucleotidase in snake venom. An anion-exchange resin binds all charged nucleotides and leaves [^3H]adenosine as the only labelled compound to be counted by liquid scintillation.
(§4) 50 μl of diluted PDE enzyme was incubated with 50 μl of [^3H]-cAMP (specific activity 25 Ci/mmol) and 11 μl of 50% DMSO (or compound dilution) for 20 minutes at 30° C. The enzyme was diluted in 20 mM Tris HCl pH7.4 (×2.2 final concentration) and [3H]-cAMP was diluted in 10 mM MgCl2, 40 mM Tris HCl pH 7.4 (×2.2 final concentration). Reactions were carried out in Greiner 96 deep well 1 ml master-block. The plates were centrifuged for 9 seconds before the 20 minutes incubation. […] After incubation 200 μl Dowex resin (1×8, 200-400 mesh) was added and the plate shaken for 20 minutes then centrifuged for 3 minutes at 1000×g. 50 μl of supernatant was removed and added to 200 μl of MicroScint-20 in white plates (Greiner 96well Optiplate) and shaken for 30 minutes before reading on Perkin Elmer TopCount Scintillation Counter. IC50 values were calculated using GraphPad Prism software (version 8).

[16] = biological target: PDE4D2 (Homo sapiens, UniProt Q08499); type: biochemical
Chain of PDE4D2 (Q08499 303-809): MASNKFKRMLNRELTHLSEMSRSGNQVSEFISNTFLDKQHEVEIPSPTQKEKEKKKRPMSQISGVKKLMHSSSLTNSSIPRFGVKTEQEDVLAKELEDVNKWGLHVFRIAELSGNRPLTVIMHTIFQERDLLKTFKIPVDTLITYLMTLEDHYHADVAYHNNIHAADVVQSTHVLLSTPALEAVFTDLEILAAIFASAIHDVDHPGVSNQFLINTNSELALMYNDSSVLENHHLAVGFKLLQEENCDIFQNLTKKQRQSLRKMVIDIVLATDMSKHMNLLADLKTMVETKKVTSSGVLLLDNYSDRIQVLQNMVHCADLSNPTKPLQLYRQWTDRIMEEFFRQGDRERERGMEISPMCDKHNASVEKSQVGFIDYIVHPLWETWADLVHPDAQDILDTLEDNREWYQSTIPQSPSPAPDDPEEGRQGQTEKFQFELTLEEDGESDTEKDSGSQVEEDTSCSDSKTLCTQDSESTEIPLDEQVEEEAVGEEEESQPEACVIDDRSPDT
Experimental: as §2, §3, §4

[17] = biological target: PDE4D5 (Homo sapiens, UniProt Q08499); type: biochemical
Experimental: as §2, §3, §4

[18] = biological target: T1, PDE4D3; type: biochemical
Experimental: as §2, §3, §4

[19] = biological target: PDE4D4 (Homo sapiens, UniProt Q08499); type: biochemical
Chain of PDE4D4 (Q08499 whole entry): as the sequence (Q08499 whole entry) above
Experimental: as §2, §3, §4

[20] = biological target: PDE4B2 (Homo sapiens, UniProt Q07343); type: biochemical
Chain of PDE4B2 (Q07343 1-564 isoform Q07343-2): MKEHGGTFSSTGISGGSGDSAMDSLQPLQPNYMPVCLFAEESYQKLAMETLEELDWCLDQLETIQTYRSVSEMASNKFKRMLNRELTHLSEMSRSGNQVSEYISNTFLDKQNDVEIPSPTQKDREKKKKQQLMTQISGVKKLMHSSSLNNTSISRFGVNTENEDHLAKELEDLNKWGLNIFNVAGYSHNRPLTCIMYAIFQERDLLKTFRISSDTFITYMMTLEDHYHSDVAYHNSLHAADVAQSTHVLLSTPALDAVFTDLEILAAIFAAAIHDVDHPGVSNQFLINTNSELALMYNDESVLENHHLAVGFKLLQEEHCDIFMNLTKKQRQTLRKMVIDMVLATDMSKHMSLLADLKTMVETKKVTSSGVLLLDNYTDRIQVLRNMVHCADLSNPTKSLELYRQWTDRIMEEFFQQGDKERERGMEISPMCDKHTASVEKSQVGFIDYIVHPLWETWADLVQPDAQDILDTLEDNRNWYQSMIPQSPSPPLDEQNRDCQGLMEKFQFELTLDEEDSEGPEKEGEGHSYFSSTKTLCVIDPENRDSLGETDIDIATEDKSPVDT
Experimental: as §2, §3, §4

T1 sequence (Q08499 1-673 isoform Q08499-2): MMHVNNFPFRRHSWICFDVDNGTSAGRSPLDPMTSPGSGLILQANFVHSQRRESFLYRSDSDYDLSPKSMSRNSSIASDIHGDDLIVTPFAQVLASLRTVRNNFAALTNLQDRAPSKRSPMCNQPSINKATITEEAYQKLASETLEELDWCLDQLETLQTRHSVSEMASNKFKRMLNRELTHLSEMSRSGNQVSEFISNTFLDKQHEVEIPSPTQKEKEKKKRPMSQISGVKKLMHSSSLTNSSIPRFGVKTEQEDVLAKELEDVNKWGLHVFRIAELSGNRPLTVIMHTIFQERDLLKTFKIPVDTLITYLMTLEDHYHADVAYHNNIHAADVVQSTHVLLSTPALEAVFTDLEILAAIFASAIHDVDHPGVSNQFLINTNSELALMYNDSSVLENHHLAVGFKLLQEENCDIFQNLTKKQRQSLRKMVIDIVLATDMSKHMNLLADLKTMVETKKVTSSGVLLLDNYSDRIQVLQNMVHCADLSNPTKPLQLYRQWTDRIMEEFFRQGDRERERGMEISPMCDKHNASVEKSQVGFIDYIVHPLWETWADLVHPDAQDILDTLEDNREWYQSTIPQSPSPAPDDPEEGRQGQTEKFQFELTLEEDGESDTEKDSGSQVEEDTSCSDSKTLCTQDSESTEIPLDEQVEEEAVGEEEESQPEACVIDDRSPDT

O=C(Cc1c(Cl)c[n+]([O-])cc1Cl)c1ccc(OC(F)F)c2c1OC1(CCS(=O)(=O)CC1)O2 [Compound (I), 2-(3,5-Dichloro-1-oxido-pyridine-4-yl)-1-(7-difluoro-methoxy-2′,3′,5′,6′-tetrahydro-spiro[1,3-benzodioxole-2,4′-(4H)-thiopyran-1′,1′-dioxide]-4-yl)ethanone]
inhibition at 0.1 µM [1]: 74% | Inhibition (%) ([2]; compound 10^−7 M (100 nM)): not significantly inhibited | inhibition at 0.0001 µM ([2]; compound 10^−10 M): 9% | increase of TNF-α levels observed at 1 hour [3]: attenuated, in a clear dose-related manner | Viability Emax, % [4]: 7% | pEC50 ([4]; Homo sapiens, PBMC): < 5.00 | pIC50 [5]: 7.80 | inhibition at 0.02 µM [6]: 40% | inhibition at 0.02 µM [7]: 54% | inhibition at 0.02 µM [8]: 50% | Inhibition of IL-13 secretion (in words) [9]: not clearly inhibited | inhibition at 0.02 µM [10]: 44% | Inhibition of IL-8 secretion (in words) [11]: not clearly inhibited | inhibition at 0.02 µM [12]: 60% | pEC50 [13]: 7.83 | pIC50 [14]: 7.96 | pIC50 [15]: 8.52 | pIC50 [16]: 8.05 | pIC50 [17]: 8.52 | pIC50 [18]: 8.10 | pIC50 [19]: 8.10 | pIC50 [20]: 8.22
